Test results reported in US4624952A, “Pyridazine and pyrimidine compounds active on the central nervous system as sedatives or anticonvulsants” (Sanofi, priority 1983, dated 1986).
Counter-ions that a name gives are not always drawn. Like-named read-outs stand apart in the source and are kept apart here.

How the values were obtained:
[1] = tested on: convulsions induced by an electric shock in Charles River CDl mice; assay: Antagonism of the convulsions induced by an electric shock; type: in vivo; details: 1 h; mouse; oral, 60 min before electric shock (12.5 volts, 0.3 seconds); read-out: Median effective dose (ED50) Antagonism of the electric shock
Protocol: (§1) The anti-epileptic effect of the products in the mouse was assessed on a model of convulsions provoked by an electric shock, and on a model of convulsions induced by a chemical agent: bicuculline.
The test was slightly modified from that of SWINYARD et al (1952) and ASAMI et al (1974). The equipment was composed of a Racia shock generator provided with two ocular electrodes delivering a current of 12.5 volts for 0.3 seconds. The batches were constituted by 10 Charles River CDl mice, weighing between 20 and 24 g. The products were administered by the oral route, 60 minutes before the electric shock. The animals presenting no tonic extension of the rear limbs were considered as being protected from the convulsive crisis.

[2] = tested on: spontaneous motility of female Charles River CDl mice; assay: Effect of the products on the spontaneous motility (actimeter test); type: in vivo; details: Mus musculus, po, 0.75 h, 45 min after administration, recorded 10 min, vs controls, * p 0,05, ** p 0,01 (Student test), read-out: Locomotor activity Score (p.cent/controls); for change in vivo at 100 mg/kg: 100 mg/kg p.o.; for change in vivo at 250 mg/kg: 250 mg/kg p.o.
Protocol: (§2) The sedative effect is translated by the reduction of the spontaneous motility of the animals. This was measured by the actimeter test developed by BOISSIER and SIMON (1965). The equipment was composed of actimetric cages, of the Apelab type (26×21.5×10 cm), through which pass two light rays which act on a photoelectric cell. The batches were constituted by 12 female Charles River CDl mice weighing between 20 and 24 g. The animals were placed individually in the cages 45 minutes after the oral administration of the products at the dose of 250 mg/kg or at the dose of 100 mg/kg. Each passage through a light beam was counted by an individual meter. The scores corresponding to the movements of the animals were recorded for 10 minutes and compared with the scores made by the batches of control animals, treated solely by the vehicle (0.1N HCl).

[3] = Lethal dose in the mouse after acute administration; details: in vivo; for mortality at 72 h: po, read-out: % of toxicity (animals which die); for LD50 at 72 h: oral, calculated, read-out: LD50 (DL50)
Protocol: The products were administered by the oral route to batches of 5 female Charles River CDl mice, weighing between 20 and 24 g. They were solubilized in 0.1N HCl.
Toxicity was noted during the 72 hours following administration of the products. The LD50 was calculated for two products.
The results expressed in percentage of animals which die in the […] consecutive to the oral administration of the products are noted in the preceding Table.

[4] = tested on: convulsions provoked by bicuculline in Charles River CDl mice; assay: Antagonism of the convulsions provoked by bicuculline; type: in vivo; details: mouse; oral, 60 min before bicuculline 0.8 mg/kg i.v.; read-out: Median effective dose (ED50) Antagonism of Bicuculline
Protocol: as §1
The batches were constituted by 10 Charles River CDl mice, weighing between 20 and 22 g. The products were administered by the oral route, 60 minutes before the bicuculline (0.8 mg/kg, i.v.). The appearance of tonic convulsions was noted during the 60 minutes following the injection of the bicuculline.

[5] = tested on: loss of the turn-around reflex in Charles River CDl mice; assay: Potentialization of narcosis by pentobarbital; type: in vivo; details: po; mouse; product 60 min before pentobarbital 20 mg/kg i.p.
Protocol: With a view to assessing the hypnogenic power of the products, we have studied their capacity to potentialize the effects of a subnarcotic dose of pentobarbital in the mouse. The batches were constituted by 10 Charles River CDl mice, weighing between 20 and 24 g. The pentobarbital (20 mg/kg, i.p.) was administered 60 minutes after administration of the products. The criterion of sleep-induction retained was the loss of the turn-around reflex.

[6] = tested on: turnaround reflex of mice; assay: Loss of turnaround reflex (sleep-inducing effect); type: in vivo, mouse; details: 100 mg/kg, oral
Protocol: as §2
On the other hand, at the dose of 100 mg/kg, the CM 41378 provokes a loss of turnaround reflex characteristic of a sleep-inducing effect in 50% of the animals treated.

[7] = tested on: spontaneous motility of female Charles River CDl mice; assay: Effect of the products on the spontaneous motility (actimeter test); type: in vivo; details: Mus musculus, po, 0.75 h, 45 min after administration, recorded 10 min, vs controls, read-out: Locomotor activity Score (p.cent/controls)

Compound	ED50 [1] [mg/kg]	change in vivo at 100 mg/kg [2] [%]	mortality at 72 h ([3]; 250 mg/kg p.o.) [%]	mortality at 72 h ([3]; 500 mg/kg p.o.) [%]	mortality at 72 h ([3]; 1000 mg/kg p.o.) [%]	change in vivo at 250 mg/kg [2] [%]	ED50 [4] [mg/kg]	ED50 [5] [mg/kg]	LD50 at 72 h [3] [mg/kg]	loss of turnaround reflex characteristic of a sleep-inducing effect, animals treated [6] [%]	change in vivo at 150 mg/kg ([7]; 150 mg/kg p.o., ** p 0,01 (Student test)) [%]	change in vivo at 10 mg/kg ([7]; 10 mg/kg p.o., * p 0,05 (Student test)) [%]
OC1CCN(c2ccc(-c3cccc(C(F)(F)F)c3)nn2)CC1 [CM 40857]	63	-87	–	–	–	–	–	–	–	–	–	–
OC1CCN(c2ncc(Cl)c(-c3ccccc3Cl)n2)CC1 [CM 40858, Hydrobromide of 5-chloro-6-(2-chlorophenyl)-2-(4-hydroxy-piperidino)pyrimidine]	49	–	0	0	0	-20	–	–	–	–	–	–
OC1CCN(c2ccc(-c3ccccc3Cl)nn2)CC1 [CM 40907, 3-(4-hydroxy-piperidino)-6-(2-chlorophenyl)pyridazine]	16	-66	–	–	–	–	38	96	807	–	–	–
OC1CCN(c2ccc(-c3ccc(Cl)cc3)nn2)CC1 [CM 41127]	28	-68	0	0	–	–	98	–	–	–	–	–
OC1CCN(c2ccc(-c3ccc(Cl)c(Cl)c3)nn2)CC1 [SR 41155]	–	-82	0	100	100	–	–	20	–	–	–	–
OC1CCN(c2ccc(-c3ccccc3)nn2)CC1 [SR 41171]	86	-34	0	0	100	–	83	–	–	–	–	–
CCCC(=O)OC1CCN(c2ccc(-c3ccccc3Cl)nn2)CC1 [SR 41172, 3-(4-butyroyloxypiperidino)-6-(2-chlorophenyl)-pyridazine]	28	-32	0	0	100	–	39	–	–	–	–	–
O=C(OC1CCN(c2ccc(-c3ccccc3Cl)nn2)CC1)C1CC1 [SR 41174]	92	-15	–	–	–	–	–	–	–	–	–	–
OC1CCN(c2ccc(-c3ccc(F)cc3)nn2)CC1 [SR 41184]	48	-91	0	60	100	–	–	–	–	–	–	–
COc1ccc(-c2ccc(N3CCC(O)CC3)nn2)cc1 [SR 41185]	–	–	0	0	0	-78	–	–	–	–	–	–
OC1CCN(c2ccc(-c3cccc(Cl)c3)nn2)CC1 [SR 41188]	45	-77	0	0	60	–	–	–	–	–	–	–
OC1CCN(c2ccc(-c3ccccc3Cl)nn2)C1 (stereo not drawn) [SR 41254]	–	-34	0	0	20	–	–	–	–	–	–	–
OCC1CCN(c2ccc(-c3ccccc3Cl)nn2)C1 (stereo not drawn) [SR 41259]	–	-19	–	–	–	–	–	–	–	–	–	–
OCCC1CCN(c2ccc(-c3ccccc3Cl)nn2)CC1 [SR 41261]	–	-27	–	–	–	–	–	–	–	–	–	–
OC1CCN(c2ccc(-c3ccc(Cl)cc3Cl)nn2)CC1 [SR 41378, 3-(4-hydroxy-piperidino)-6-(2,4-dichloro-phenyl)pyridazine]	30	–	–	–	–	–	5.7	21	423	50	–	–
OC1CCN(c2nccc(-c3ccc(Cl)cc3)n2)CC1 [SR 41554]	145	–	0	0	0	-26	147	66	–	–	–	–
OC1CCN(c2ncc(Cl)c(-c3ccc(Cl)cc3)n2)CC1 [SR 41556]	–	–	0	0	0	-29	–	–	–	–	–	–
OC1CCN(c2ccc(-c3ccccc3F)nn2)CC1 [SR 41558]	115	–	0	0	80	-93	30	–	–	–	–	–
Oc1ccccc1-c1ccc(N2CCC(O)CC2)nn1 [SR 41559]	–	–	0	0	0	-66	–	–	–	–	–	–
OCCN(CCO)c1nccc(-c2ccc(Cl)cc2)n1 [SR 41590]	–	–	0	0	40	–	–	–	–	–	–	–
OCCN(CCO)c1nccc(-c2ccccc2Cl)n1 [SR 41591]	–	–	0	0	0	–	–	–	–	–	–	–
O=[N+]([O-])c1ccccc1-c1ccc(N2CCC(O)CC2)nn1 [SR 41673, 3-(4-hydroxy-piperidino)-6-(2-nitrophenyl)-pyridazine]	27	–	0	0	20	-61	81	–	–	–	–	–
CNC(=O)OC1CCN(c2ccc(-c3ccccc3Cl)nn2)CC1 [SR 41820, 3-(4-methylcarbamoyloxy-piperidino)-6-(2-chloro-phenyl)pyridazine]	10	–	–	–	–	–	13	–	–	–	–	–
OC1CCN(c2ccc(-c3cc(Cl)ccc3Cl)nn2)CC1 [SR 41932]	30	–	0	0	100	–	131	–	–	–	-59	–
CN(C)C(=O)OC1CCN(c2ccc(-c3ccccc3Cl)nn2)CC1 [SR 42095]	2	–	–	–	–	–	1.6	7.4	–	–	–	-28
OC1CCN(c2ccc(-c3cccc4ccccc34)nn2)CC1 [SR 42399]	38	–	0	0	–	–	–	–	–	–	–	–
Clc1ccccc1-c1ccc(N2CCC3(CC2)OCCO3)nn1 [SR 42487, 3-[1,4-dioxa-8-aza-spiro[4,5]decane-8-yl]-6-(2-chloro-phenyl)pyridazine]	57	-42	0	0	0	–	–	–	–	–	–	–
O=C1CCN(c2ccc(-c3ccccc3Cl)nn2)CC1 [SR 42488, 3-(4-oxo-iperidino)-6-(2-chlorophenyl)pyridazine]	40	–	0	0	0	–	35	67	–	–	–	–
